From patent publication US20030017146A1, “Arginine decomposing enzyme therapeutic composition” (priority 1996, published 2003)
“Also recorded” adds a separate entry of the source.

Tests used:
[1] = system: HeLa Cells (human cervical carcinoma); assay: Arginine deprivation of HeLa cells in vitro, survival and recovery (cloning studies); assay type: cell-based
Procedure: Our in vitro work (D. N. Wheatly: Personal communication) with HeLa Cells (human cervical carcinoma) and early passages of human fibroblasts has established limits of survival and recovery after different items of arginine deprivation. […] By 96 hours of deprivation all HeLa cells were dead. In contrast, healthy fibroblasts could be recovered after even 10 days of deprivation.
Further work established that arginine concentration of 1 micro mole per liter had essentially the same effects as total deprivation. At 40 mircomolar, HeLa cycle was already disturbed, and killing of the cells started below 10 mircomolar. Thus our target “killing zone” for HeLa cells is 1 to 10 micromolar concentration of arginine during three to four days of deprivation.

thrombocytes = assay: Iloprost infusion against loss of thrombocytes limiting duration of dialysis sessions; assay type: in vivo, dogs; details: dog, infusion at 0.5 to 1.0 ng/kg/hr, last two sessions
Procedure: No systemic problems were seen that would indicate serious threats caused by the lack of arginine. As discussed earlier, loss of thrombocytes was the main factor limiting duration of the sessions. In the last two sessions on the last dog we used yet another infusion pump to deliver iloprost (ILOMEDIN), Schering), a stable analog of prostacyclin (at 0.5 to 1.0 ng/kg/hr). […] By deployment of the approaches described earlier (oxygen supply) this problem will certainly be resolved.

[2] = cited from earlier work
[3] = Continuous hemodialysis removal of arginine with insulin/glucose clamp in healthy dogs; assay type: in vivo; details: dog plasma, direct infusion of insulin and glucose with dialysis, blood flow 300 to 400 ml/min, single filter
Text: We have thus devised an approach combining our technique of extracorporeal blood treatment for removal of arginine (or any number of selected amino acids) with a pharmacological intervention employing an insulin/glucose clamp. As mentioned earlier, insulin is both an inhibitor of muscle protein breakdown (of both lysosomal and proteasomal pathways) and a promoter of protein synthesis. Since the net release of amino acids depends on both of these cellular activities, insulin is an excellent choice.
The upper two curves (dashed lines) are from the two sessions without insulin. Not shown are the concentrations of other amino acids, which could be maintained close to their pre-set levels (determined by their concentrations in the dialyzing fluid).
A detailed description of the experiment performed on one (the first) of the last three dogs is as follows. […]
Concentrations of amino acids in the blood plasma were measured on an amino acid analyzer (Pharmacia, Biochrom 20) using standard procedures of sample preparation. Using a short column and a truncated buffer program, several amino acids (phenylalanine, histidine, 3-methyl-histidine, tryptophan, lysine, and arginine) could be measured in about 30 minutes of analyzer running time. […]

[4] = cited from earlier work; remark: listed apart in the source
[5] = pH 7.4; cited from earlier work

In the case of `N=C(N)NCCC[C@H](N)C(=O)O` [arginine], the “arginine concentration at which the cell cycle was already disturbed” value [1] is reported as 40 mircomolar, the “arginine concentration below which killing of the cells started” value [1] is reported as “below 10 mircomolar” and the “arginine concentration with essentially the same effects as total deprivation” value [1] is reported as 1 micro mole per liter.

With `CC#CCC(C)[C@H](O)/C=C/[C@@H]1[C@H]2C/C(=C/CCCC(=O)O)C[C@H]2C[C@H]1O` (stereo partly shown) [iloprost] the “prolongation of the sessions” value (thrombocytes) was “slight prolongation only”.

In the case of `Cc1ncc(COP(=O)(O)O)c(C=O)c1O` [pyridoxal 5′-phosphate], the half life ([2]; in circulation) is given as “about 15 minutes”.

In the case of `Cc1ncc(CO)c(CO)c1O.Cl` [pyrodoxine hydrochloride, reference compound], the “plasma concentration of pyridoxal 5'-phosphate reached” value ([2]; human plasma, oral supplement of 100 mg/day, normal about 60 nM) is listed as 450 nM.

Work on insulin yielded an arginine level reached [3] of 1.5 µM.

B1: bADC: biosynthetic arginine decarboxylase of E. coli, tetramer of 296,000 molecular weight requiring pyridoxal 5'-phosphate and magnesium ion (protein, UniProt P21170 1-658, looked up)
Biosynthetic arginine …: MSDDMSMGLPSSAGEHGVLRSMQEVAMSSQEASKMLRTYNIAWWGNNYYDVNELGHISVCPDPDVPEARVDLAQLVKTREAQGQRLPALFCFPQILQHRLRSINAAFKRARESYGYNGDYFLVYPIKVNQHRRVIESLIHSGEPLGLEAGSKAELMAVLAHAGMTRSVIVCNGYKDREYIRLALIGEKMGHKVYLVIEKMSEIAIVLDEAERLNVVPRLGVRARLASQGSGKWQSSGGEKSKFGLAATQVLQLVETLREAGRLDSLQLLHFHLGSQMANIRDIATGVRESARFYVELHKLGVNIQCFDVGGGLGVDYEGTRSQSDCSVNYGLNEYANNIIWAIGDACEENGLPHPTVITESGRAVTAHHTVLVSNIIGVERNEYTVPTAPAEDAPRALQSMWETWQEMHEPGTRRSLREWLHDSQMDLHDIHIGYSSGIFSLQERAWAEQLYLSMCHEVQKQLDPQNRAHRPIIDELQERMADKMYVNFSLFQSMPDAWGIDQLFPVLPLEGLDQVPERRAVLLDITCDSDGAIDHYIDGDGIATTMPMPEYDPENPPMLGFFMVGAYQEILGNMHNLFGDTEAVDVFVFPDGSVEVELSDEGDTVADMLQYVQLDPKTLLTQFRDQVKKTDLDAELQQQFLEEFEAGLYGYTYLEDE
For B1, the “pH of optimal activity” value ([4]; absolute requirement for magnesium ion) is listed as about 8, the “Michaelis constant for pyridoxal 5'-phosphate” value ([4]; cofactor) is listed as 0.6 µM and the specific activity ([4]; enzyme purified 1,000 fold) is listed as 16.4 units/mg. For the same molecule, the “magnesium saturation S0.5” value ([4]; sigmoidal magnesium saturation curve) was 1.3 mM and the “Michaelis constant for arginine” value ([4]; substrate) was 30 µM.

B2: dADC: inducible (biodegradative) arginine decarboxylase of E. coli, molecular weight 850,000, induced by low pH (protein, UniProt P28629 1-755, looked up)
Biodegradative arginine …: MKVLIVESEFLHQDTWVGNAVERLADALSQQNVTVIKSTSFDDGFAILSSNEAIDCLMFSYQMEHPDEHQNVRQLIGKLHERQQNVPVFLLGDREKALAAMDRDLLELVDEFAWILEDTADFIAGRAVAAMTRYRQQLLPPLFSALMKYSDIHEYSWAAPGHQGGVGFTKTPAGRFYHDYYGENLFRTDMGIERTSLGSLLDHTGAFGESEKYAARVFGADRSWSVVVGTSGSNRTIMQACMTDNDVVVVDRNCHKSIEQGLMLTGAKPVYMVPSRNRYGIIGPIYPQEMQPETLQKKISESPLTKDKAGQKPSYCVVTNCTYDGVCYNAKEAQDLLEKTSDRLHFDEAWYGYARFNPIYADHYAMRGEPGDHNGPTVFATHSTHKLLNALSQASYIHVREGRGAINFSRFNQAYMMHATTSPLYAICASNDVAVSMMDGNSGLSLTQEVIDEAVDFRQAMARLYKEFTADGSWFFKPWNKEVVTDPQTGKTYDFADAPTKLLTTVQDCWVMHPGESWHGFKDIPDNWSMLDPIKVSILAPGMGEDGELEETGVPAALVTAWLGRHGIVPTRTTDFQIMFLFSMGVTRGKWGTLVNTLCSFKRHYDANTPLAQVMPELVEQYPDTYANMGIHDLGDTMFAWLKENNPGARLNEAYSGLPVAEVTPREAYNAIVDNNVELVSIENLPGRIAANSVIPYPPGIPMLLSGENFGDKNSPQVSYLRSLQSWDHHFPGFEHETEGTEIIDGIYHVMCVKA
In the case of B2, the “catalytic activity at physiological pH” value [5] is listed as “vanishes; also recorded: near total loss of activity”.
